The target in assay [1] is T1, wt IDH1 (Homo sapiens, UniProt O75874).
T1 construct: made in house; host or cells: Escherichia coli BL21(DE3) pLyS
The assay is described as follows: Absorbance turnover assay (NADPH, 340 nm), wt IDH1-catalyzed conversion of isocitrate to 2OG. It is filed as biochemical. Particulars: wt IDH1 (2 nM), isocitrate to 2OG; 100 mM tris-HCl, 10 mM MgCl2, pH 8.0; read-out: IC50/nM wt IDH1. As to the method:
(Figure 3, Scheme 1). […] We employed ^1H NMR (700 MHz) spectroscopy to simultaneously monitor NADPH, NADP^+, 2OG, and 2HG levels (Figure S3) in order to validate observations from the absorbance assays.
(§1) IDH1 activities were measured spectrophotometrically by monitoring changes in NADPH absorbance at 340 nm.[10] […] The difference in absorbance, ΔA340, in the linear range of the reaction profile was converted to % residual activity using a DMSO control as the 100% residual activity reference. […] Experiments were performed in (at least) triplicate. The standard assay buffer for IDH1 consists of 100 mM tris–HCl, 10 mM MgCl2, 0.005% (v/v) Tween 20, pH 8.0, 0.2 mM DTT, and 0.1 mg/mL BSA. In general, compounds [25 μL, 0.4% (v/v) DMSO] were pre-incubated with IDH1 (25 μL) for 12 min, followed by addition of DL-isocitrate/2OG (25 μL) and NADP^+/NADPH (25 μL) to initiate the reaction. The substrate/cofactor concentrations were optimized by determining KM values for substrates/cofactors as described.[10]

The target of assay [2] is T2, IDH1 R132H (Homo sapiens, UniProt O75874, R132H).
T2 construct: made in house; host or cells: Escherichia coli BL21(DE3) pLyS
T2 sequence (O75874 whole entry R132H): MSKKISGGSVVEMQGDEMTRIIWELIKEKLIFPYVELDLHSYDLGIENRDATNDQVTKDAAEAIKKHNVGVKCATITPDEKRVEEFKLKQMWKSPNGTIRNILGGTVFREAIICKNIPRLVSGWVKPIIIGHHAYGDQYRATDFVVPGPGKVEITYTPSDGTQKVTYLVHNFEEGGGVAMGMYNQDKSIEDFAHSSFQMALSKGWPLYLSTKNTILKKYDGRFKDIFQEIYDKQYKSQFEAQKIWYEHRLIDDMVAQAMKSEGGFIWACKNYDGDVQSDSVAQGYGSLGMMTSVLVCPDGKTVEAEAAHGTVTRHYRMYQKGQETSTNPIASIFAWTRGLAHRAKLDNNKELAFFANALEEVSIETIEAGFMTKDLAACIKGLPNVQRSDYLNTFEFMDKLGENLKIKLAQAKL
The assay can be described thus: Absorbance turnover assay (NADPH, 340 nm), IDH1 R132H-catalyzed conversion of 2OG to 2HG. It is filed as biochemical. As to the method:
as §1

Assay [3] concerns the target T2, IDH1 R132H. The assay is described as follows: Differential scanning fluorimetry (DSF) thermal shift, IDH1 R132H. Type of assay: binding. Particulars: largest change in Tm of IDH1 ([…]) with 3-100 μM inhibitor. As to the method: Thermal shift experiments were carried out using Sypro Orange and a CFX96 Touch Real-Time PCR Detection System (Bio-Rad) machine.[42] […] The standard assay buffer contains 50 mM tris–HCl at pH 7.5. Various concentrations of compounds (1% DMSO final) were mixed with IDH1 for thermal stabilization studies. […] Bio-Rad CFX Manager was used to determine the melting temperature, Tm.
(DSF heats the sample and reads unfolding from a dye or from intrinsic fluorescence.)

In assay [4] the target is T1, wt IDH1. The assay is described as follows: Circular dichroism (CD) melting temperature, wt IDH1. Type of assay: binding. Particulars: inhibitor 42 μM, IDH 4.2 μM (0.2 mg/mL); read-out: Δ Tm/°C by CD wt IDH1. As to the method:
(§2) CD spectra were acquired using a Chirascan CD spectrometer (Applied Photophysics) with a Peltier temperature-control cell holder. Experiments were carried out in a 0.1 cm path length quartz cuvette at 20 °C. […] Spectra were averaged (n = 3) and smoothed (window size = 7) using the Savitzky–Golay filter. The mean residue ellipticity (MRE) was calculated according to the formula [drawing 1] where θ is the degree of ellipticity, N is the number of amino acids, c is the concentration (mol/L), and l is the path length (cm).
(§3) Measurements were conducted in 2 °C increments. The melting temperature was calculated using a Boltzmann sigmoidal model in GraphPad Prism v5.04.

In assay [5] the target is T2, IDH1 R132H. The assay can be described thus: Circular dichroism (CD) melting temperature, IDH1 R132H. It is filed as binding. Particulars: inhibitor 42 μM, IDH 4.2 μM (0.2 mg/mL); read-out: Δ Tm/°C by CD IDH1 R132H. As to the method: as §2, §3
(In general: Circular dichroism is the unequal absorption of left and right circularly polarised light.)

The target in assay [6] is T1, wt IDH1. The assay is described as follows: Isothermal titration calorimetry (ITC), wt IDH1. It is filed as binding. Particulars: 40 μM IDH1, 50 mM tris-HCl pH 7.5, 25 °C. As to the method:
(§4) ITC was conducted using a Malvern MicroCal PEAQ-ITC Automated machine (Malvern Panalytical). In general, IDH1 was prepared in 50 mM tris–HCl, pH 7.5, and the compounds were dissolved in the same buffer. 400 μL of cell solution containing 40 μM IDH1 [4% (v/v) DMSO] and 200 μL of the titrant containing 200 or 400 μM compound [2% or 4% (v/v) DMSO] were transferred to an ITC plate (Malvern Panalytical WEL020854-010). […] The injection setup consisted of 19 injections, with 1 initial injection of 0.4 μL and 18 subsequent injections of 2.0 μL each with 150 s between the injections. Thermodynamic parameters were obtained using MicroCal PEAQ-ITC analysis software.
(In general: In ITC the heat of successive injections is recorded.)

Assay [7] concerns the target T2, IDH1 R132H. The assay is described as follows: Isothermal titration calorimetry (ITC), IDH1 R132H. Particulars: 40 μM IDH1, 50 mM tris-HCl pH 7.5, 25 °C. Type of assay: binding. As to the method:
as §4

Assay [8] addresses T1, wt IDH1. The assay can be described thus: Ligand-observed 1H NMR (CPMG-edited, 700 MHz) binding, wt IDH1. Particulars: line broadening, 10 μM inhibitor, 50 mM tris-D11-HCl pH 7.5. As to the method: Additional solvent presaturation was applied for 2 s. Samples contained 160 μL of 10 μM compound (0.2% DMSO) in 50 mM tris-D11-HCl, pH 7.5 in 90% H2O/10% D2O (v/v). […] 200 or 400 scans per IDH concentration were recorded, and signals corresponding to the compound were integrated and processed using TopSpin 3.6.1 software.

Assay [9] concerns the target T1, wt IDH1. The assay is described as follows: Non-denaturing MS binding, wt IDH1. As to the method:
(§5) Non-denaturing mass spectra were obtained using a quadrupole time-of-flight mass spectrometer (Synapt HD MS, Waters, Manchester, UK).[44],[45] […] Protein concentrations were measured using a Nanodrop spectrometer (Thermo Scientific NanoDrop One). Compounds were dissolved in MeOH to avoid DMSO interference with mass spectra. IDH1 (20 μL of 50 μM final) and the compound of interest (1–4% (v/v) MeOH) in 200 mM ammonium acetate at pH 7.5 were pipetted into wells of a sample plate of an automated chip-based nano-electrospray ion source (TriVersa Nanomate, Advion, Ithaka, NY, USA). Compounds were serially diluted in buffer and mixed with IDH1 diluted in buffer. The mixture was sprayed through a nozzle in a Nanomate chip at a spray voltage of 1.8–2.0 kV (spray backing gas pressure 0.8–1.0 psi, inlet pressure 3.8 mbar). […] Data collection and analyses used Waters MassLynx software. Mass spectra were calibrated externally using CsI solution. KD values were calculated using eq 2 as reported[46] at each compound concentration and are reported as an average across multiple concentrations. For inhibitors with a binding stoichiometry of two inhibitors/IDH dimer, the inhibitor-bound protein peak intensity used was a sum of first and second inhibitor-bound protein peak intensities. Data for the IDH1 dimer m/z = 20^+ charge state are shown. For clarity, only 2× NADPH bound protein peaks are annotated.

Assay [10] concerns the target T2, IDH1 R132H. The assay can be described thus: Non-denaturing MS binding, IDH1 R132H. Particulars: Figure S7b. As to the method: as §5

Bounds are passed on as bounds.

T1 sequence (O75874 whole entry): as the sequence (O75874 whole entry R132H) above, with H132R counted along it

For orientation: Kd means the concentration at which binding is half-saturated. Low readings indicate a tighter complex, high ones a looser complex. In the case of `Cc1ccccc1C(C(=O)NC1CCCCC1)N(C(=O)Cn1ccnc1C)c1cccc(F)c1` (stereo not drawn) [AGI-5198], the IC50 was over 10000 nM at wt IDH1 [1] and 61 nM against IDH1 R132H [2] (IDH1 R132H (30 nM), 2OG to 2HG, 100 mM tris-HCl, 10 mM MgCl2, pH 8.0). The “Selectivity against IDH1 R132H over IDH1 wt” value at IDH1 R132H [2] (IC50 (IDH1 wt)/IC50 (IDH1 R132H)) is reported as over 164. Besides, at IDH1 R132H [3], the “Δ Tm/°C by DSF IDH1 R132H” value turned out to be 6.0 °C. Besides, the ΔTm at 42 µM came out at 2.9 °C on wt IDH1 [4] and 7.7 °C on IDH1 R132H [5]. Also, the Kd on wt IDH1 [6] was over 400 µM; at IDH1 R132H [7], over 400 µM; on wt IDH1 [8] it was 9.1 µM; at wt IDH1 [9] (IDH 50 μM, 200 mM ammonium acetate pH 7.5), 608 µM. The “stoichiometry, inhibitors per IDH1 dimer, wt IDH1” value at wt IDH1 [9] (Figure S7a) was found to be 1. Further, the “stoichiometry, inhibitors per IDH1 dimer, IDH1 R132H” value at IDH1 R132H [10] worked out at 1.
